Like-named read-outs stand apart in the source and are kept apart here.
Legend:
[1] = molecular target: HIV-1 protease (Human immunodeficiency virus type 1 group M subtype B, UniProt P04585); assay: biochemical; settings: Table VII
Source text: We measured the inhibition constants of the compounds listed in Table VII against HIV-1 protease using the above-cited method of Pennington et al.

[2] = tested on: HIVIIIb in CCRM-CEM cells; assay: Anti-viral potency in CCRM-CEM cells acutely infected with HIVIIIb (method of Meek et al.), extracellular p24 antigen; type: cell-based, HIV-1; settings: Table VIII, read-out: IC90 Range
Method in brief: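 Compounds in DMSO were added to CCRM-CEM cells (CD4+ human T-cell lymphoma) acutely infected with HIVIIIb following Meek et al. Inhibition of viral replication was determined from extracellular p24 antigen concentration measured by enzyme immunoassay.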

[3] = Human immunodeficiency virus 1, HIV replication

Compound | Ki [1] [nM] | IC90 [2, 3] [nM] | IC90 ([2]; HIV replication) [nM]
CC(C)CN(C[C@@H](O)[C@H](Cc1ccccc1)NC(=O)[C@H](CC(N)=O)NC(=O)c1ccc2ccccc2n1)S(=O)(=O)c1ccc(-c2ccccn2)s1 [Compound 12, (S)-N-1-(1-(S)-Benzyl-2-(syn)-hydroxyl-3-(isobutyl-(5-pyridin-2-yl-thiophene-2-sulfonyl)-amino)-propyl)-2-((quinoline-2-carbonyl)-amino)-succinamide] | 0.1 | < 100 | –
CC(C)CN(C[C@@H](O)[C@H](Cc1ccccc1)NC(=O)[C@@H](NC(=O)OCc1ccccn1)C(C)C)S(=O)(=O)c1ccc(F)cc1 [Compound 26] | 0.1 | 101 to 1000 | –
CC(C)CN(C[C@@H](O)[C@H](Cc1ccccc1)NC(=O)OC(C)(C)C)S(=O)(=O)c1cccc(F)c1 [Compound 50] | 11 | 1000 to 10000 | –
CC(C)CN(C[C@@H](O)[C@H](Cc1ccccc1)NC(=O)OC1CCOC1)S(=O)(=O)c1ccc(F)cc1 (stereo partly drawn) [Compound 52, 4-Fluoro-N-((2 syn,3S)-2-hydroxy-4-phenyl-3-((R)-tetrahydrofuran-3-yloxycarbonylamino)-butyl)-N-isobutyl-benzenesulfonamide and 4-Fluoro-N-((2 syn,3S)-2-hydroxy-4-phenyl-3-((R)-tetrahydrofuran-3-yloxycarbonylamino)-butyl)-N-isobutyl-benzenesulfonamide] | 0.4 | 101 to 1000 | –
CC(C)CN(C[C@@H](O)[C@H](Cc1ccccc1)NC(=O)OC(C)(C)C)S(=O)(=O)c1ccc(N)c([N+](=O)[O-])c1 [Compound 62] | 72 | – | –
CC(C)CN(C[C@@H](O)[C@H](Cc1ccccc1)NC(=O)OC(C)(C)C)S(=O)(=O)N(C)C [Compound 68] | 120 | – | –
CC(C)N(C[C@@H](O)[C@H](Cc1ccccc1)NC(=O)OC(C)(C)C)S(=O)(=O)c1ccc(F)cc1 [Compound 75] | 290 | – | –
C=CCOC(=O)N[C@@H](Cc1ccccc1)[C@H](O)CN(CC(C)C)S(=O)(=O)c1ccc(F)c(NC(C)=O)c1 [Compound 87] | 10 | 1000 to 10000 | –
CC(=O)Nc1ccc(S(=O)(=O)N(CC(C)C)C[C@@H](O)[C@H](Cc2ccccc2)NC(=O)OCC2CCOC2)cc1 (stereo partly shown) [Compound 92] | 20 | – | –
CC(C)CN(C[C@@H](O)[C@H](Cc1ccccc1)NC(=O)OCC1CCOC1)S(=O)(=O)c1ccc(F)cc1 (stereo partly drawn) [Compound 97, 4-Fluoro-N-(2 syn,3S)-2-hydroxy-4-phenyl-3-((tetrahydro-furan-(R)-3-ylmethoxycarbonylamino)-butyl)-N-isobutyl-benzenesulfonamide and 4-Fluoro-N-(2 syn,3S)-2-hydroxy-4-phenyl-3-((tetrahydro-furan-(S)-3-ylmethoxycarbonylamino)-butyl)-N-isobutyl-benzenesulfonamide] | 2.5 | 101 to 1000 | –
CC(C)CN(C[C@@H](O)[C@H](Cc1ccccc1)NC(=O)OCc1ccccn1)S(=O)(=O)c1ccc(F)c(F)c1 [Compound 108] | 2 | 1000 to 10000 | –
O=C(N[C@@H](Cc1ccccc1)[C@H](O)CN(CC1CCCC1)S(=O)(=O)c1ccc2c(c1)OCO2)O[C@H]1CCOC1 [Compound 176] | < 0.1 | – | –
CC[C@H](C)[C@H](NC(=O)OCc1ccccc1)C(=O)N[C@@H](Cc1ccccc1)[C@H](O)CN(CC(C)C)S(=O)(=O)c1ccc(F)c(NC(C)=O)c1 [Compound 187, Benzyloxycarbonyl-(L)-isoleucine-N-(5-((3-amino-(2 syn,3S)-2-hydroxy-4-phenyl-butyl)-isobutyl-sulfamoyl)-2-fluoro-phenyl)-acetamide] | – | 101 to 1000 | –
CC[C@H](C)[C@H](NC(=O)c1cnc2ccccc2n1)C(=O)N[C@@H](Cc1ccccc1)[C@H](O)CN(CC(C)C)S(=O)(=O)c1ccc(F)c(NC(C)=O)c1 [Compound 188] | – | 1000 to 10000 | –
CC(C)CN(C[C@H](O)[C@H](Cc1ccccc1)NC(=O)[C@H](CC(N)=O)NC(=O)c1ccc2ccccc2n1)S(=O)(=O)c1cccc2nonc12 [Compound 192] | 67 | 1000 to 10000 | –
COc1ccc(S(=O)(=O)N(CC2CCCC2)C[C@@H](O)[C@H](CC2CCCCC2)NC(=O)O[C@H]2CCOC2)cc1 [Compound 195, N-((2 syn,3S)-4-Cyclohexyl-2-hydroxy-3-((S)-tetrahydrofuran-3-yloxycarbonylamino)-butyl)-N-cyclopentylmethyl-4-methoxy-benzenesulfonamide] | – | < 100 | –
(S)-N-1-(3-((3-Acetylamino-4-fluoro-benzenesulfonyl)-benzyl-amino)-(1S,2 syn)-1-benzyl-2-hydroxy-propyl)-2-((quinoline-2-carbonyl)-amino)-succinamide and (S)-N-1-(3-((4-Acetylamino-3-fluoro-benzenesulfonyl)-benzyl-amino)-(1S,2 syn)-1-benzyl-2-hydroxy-propyl)-2-((quinoline-2-carbonyl)-amino)-succinamide [Compound 2] | – | – | 101 to 1000

Reference: US6004957A, “Sulfonamide inhibitors of aspartyl protease” (Vertex Pharmaceuticals, Incorporated, priority 1998, dated 1999)
